The source of these data is ChEMBL document CHEMBL3044897, “Pharmacophore-based predictive model generation for potent antimalarials targeting haem detoxification pathway” (Med Chem Res, 2007).

In test [1] the test system is Heme. As to the kind of experiment: Inhibition of heme polymerization in Plasmodium falciparum after 15 min by liquid scintillation counting analysis in presence of [14C]-hemin chloride.
The test system of test [2] is Plasmodium falciparum. The experiment in a line: Antimalarial activity against chloroquine-sensitive Plasmodium falciparum 3D7 assessed as incorporation of [3H]hypoxanthine after 48 hr microdilution method. The format is functional, organism-based.
Test [3] deals with Plasmodium falciparum. As to the kind of experiment: Antimalarial activity against chloroquine-resistant Plasmodium falciparum K1 assessed as incorporation of [3H]hypoxanthine after 48 hr microdilution method. The test is classed as functional, organism-based. For orientation: Broth dilution looks for growth in wells or tubes with falling amounts of substance.

What is called IC50 is the point on the concentration scale where inhibition reaches its midpoint. In the case of `CC(CCCN1CCCC1)Nc1ccnc2cc(Cl)ccc12` (stereo unspecified) [Chloroquine-pyrolidinyl], the figures for the half-inhibitory concentration (IC50) in test [1] and in test [2] were 44000 nM and 19 nM, respectively.

For `Oc1ccc(Nc2ccnc3cc(Cl)ccc23)cc1`, the 50% inhibitory concentration (IC50) was determined as 19000 nM in test [1] and 1400 nM in test [2].

On to `CCNCCCC(C)Nc1ccnc2cc(Cl)ccc12` (stereo unspecified) [DESETHYLCHLOROQUINE], for which the half-inhibitory concentration (IC50) was determined as 720 nM in test [3], 45000 nM in test [1] and 19 nM in test [2].

`CCN(CC)Cc1cc(Nc2ccncc2)ccc1O`: the concentration for half-maximal inhibition (IC50) was 72000 nM in test [1] and 680 nM in test [2].

As to `CC(CCCN)Nc1ccnc2cc(Cl)ccc12` (stereo unspecified) [BIDESETHYL CHLOROQUINE], the results for the IC50 in test [1] and in test [2] were 58000 nM and 55 nM, respectively.

Take `CCCCN(CCCC)CCC(O)c1cc2c(Cl)cc(Cl)cc2c2cc(C(F)(F)F)ccc12` (stereo unspecified) [HALOFANTRINE]: the IC50 stood at 2.8 nM in test [3], 180000 nM in test [1] and 5.8 nM in test [2].

Take `CCN(CC)Cc1cc(Nc2ccnc3cc(Cl)ccc23)cc(-c2ccc(Cl)cc2)c1` [DEHYDROXY TEBAQUINE]: the IC50 in test [1] was found to be 51000 nM; in test [2], 42 nM.

Regarding `CCN(CC)Cc1cc(Nc2ccnc3cc(Cl)ccc23)ccc1O`, the results for the IC50 in test [3], in test [1] and in test [2] were 18 nM, 15000 nM and 7.8 nM, respectively.

With `C=C[C@H]1CN2CC[C@H]1C[C@@H]2[C@@H](O)c1ccnc2ccc(OC)cc12` [QUINIDINE], the 50% inhibitory concentration (IC50) in test [1] came out at 24000 nM; in test [2], 21 nM.

In the case of `CC(C)(C)NCc1cc(Nc2ccnc3cc(Cl)ccc23)ccc1O` [N-TERT-BUTYL-AMODIAQUINE], the concentration for half-maximal inhibition (IC50) is 9.1 nM in test [3], 32000 nM in test [1] and 5.5 nM in test [2].

Take `C=C[C@H]1CN2CC[C@H]1C[C@H]2[C@H](O)c1ccnc2ccccc12` [CINCHONIDINE]: the IC50 in test [3] is 91 nM; in test [1], 27000 nM; in test [2], 40 nM.

Turning to `C=C[C@H]1CN2CC[C@H]1C[C@@H]2[C@@H](O)c1ccnc2ccccc12` [CINCHONINE], the IC50 in test [3] is 56 nM; in test [1], 23000 nM; in test [2] it was 21 nM.

With `NCc1cc(Nc2ccnc3cc(Cl)ccc23)ccc1O` [BIDESETHYL AMODIAQUINE], the concentration for half-maximal inhibition (IC50) in test [3] stood at 170 nM; in test [1], 73000 nM; in test [2] it was 21 nM.

With `CCN(CC)CCCC(C)Nc1c2ccc(Cl)cc2nc2ccc(OC)cc12` (stereo unspecified) [QUINACRINE], the 50% inhibitory concentration (IC50) stood at 41000 nM in test [1] and 13 nM in test [2].

As to `C=C[C@H]1CN2CC[C@H]1C[C@H]2[C@H](O)c1ccnc2ccc(OC)cc12` [QUININE], the half-inhibitory concentration (IC50) in test [1] stood at 65000 nM; in test [2], 34 nM.

With `CCNCc1cc(Nc2ccnc3cc(Cl)ccc23)ccc1O` [DESETHYL AMODIAQUINE], the results for the IC50 in test [3], in test [1] and in test [2] were 39 nM, 43000 nM and 6.9 nM, respectively.

Turning to `COc1ccc2nc3cc(Cl)ccc3c(Nc3cc(CN4CCCC4)c(O)c(CN4CCCC4)c3)c2n1` [PYRONARIDINE], the IC50 is 9.1 nM in test [3], 64000 nM in test [1] and 5.7 nM in test [2].

As to `O[C@@H](c1cc(C(F)(F)F)nc2c(C(F)(F)F)cccc12)[C@H]1CCCCN1` (relative stereo) [(S,R)-MEFLOQUINE], the half-inhibitory concentration (IC50) in test [3] is 9.4 nM; in test [1], 47000 nM; in test [2], 23 nM.

Take `CCN(CC)CCCC(C)Nc1ccncc1` (stereo unspecified): the IC50 stood at 15000 nM in test [3], 92000 nM in test [1] and 12000 nM in test [2].

Turning to `CCN(CC)Cc1cc(Nc2ccnc3cc(Cl)ccc23)cc(-c2ccc(Cl)cc2)c1O` [TEBAQUINE], the concentration for half-maximal inhibition (IC50) stood at 13 nM in test [3], 53000 nM in test [1] and 9.5 nM in test [2].

`Oc1ccc(Nc2ccnc3cc(Cl)ccc23)cc1CN1CCCC1` [AMOPYROQUINE]: the results for the IC50 in test [3], in test [1] and in test [2] were 12 nM, 30000 nM and 5.3 nM, respectively.

For the compound `CCN(CC)CCCC(C)Nc1ccnc2cc(Cl)ccc12` (stereo unspecified) [CHLOROQUINE], the IC50 in test [1] was found to be 24000 nM.
